Measured values taken from patent US7554012B2, “Plants and plant cells exhibiting resistance to AMPA, and methods for making the same” (priority 1998, dated 2009).
Several values for one entry are separate records, joined by “and”; a condition that tells them apart may be missing. Equal entries are not always repeated.

Assays:
[1] = tested on: wild type Coker 312 plants; assay: AMPA spray on cotton plants; format: in vivo, cotton (Gossypium hirsutum L.)
Description: Previously identified plants transformed with a double gene glyphosate resistance cassette comprised of EPSPS and GOX encoding genes were determined to be resistant to glyphosate when applied at 48 ounces per acre through the 6-7 leaf stage, however severe bleaching of the leaves was observed. This phytotoxic effect was presumed to be due to the formation of AMPA as a result of GOX mediated glyphosate degradation. To test this, AMPA was sprayed at three different rates onto wild type Coker 312 plants. […] To test this, cotton plants expressing GOX or GOX plus EPSPS alone or in combination with PhnO expression were treated with [^14C]-glyphosate, and the metabolism of the isotope labeled glyphosate was monitored in leaf tissue seven days after application.

Tobacco callus = Tobacco callus growth on plates with AMPA or N-acetyl AMPA; format: cell-based, Nicotiana tabacum cv. "Samsun"; settings: plates with 0.1 mM or 0.4 mM, up to three weeks
Description: Tobacco callus was generated from leaf pieces of wild type Nicotiana tabacum cv. “Samsun” tobacco on MS104 plates (MS salts 4.3 g/l, sucrose 30 g/l, B5 vitamins 500X 2 ml/l, NAA 0.1 mg/l, and Bacto Agar […]). Callus tissue was applied to plates with or without AMPA and with or without N-acetyl AMPA. Plates contained AMPA or N-acetyl AMPA at concentrations of 0.1 mM or 0.4 mM. Plates were incubated for up to three weeks and monitored periodically.

E. coli GB993 = assay: Cell growth in MOPS medium with AMPA; format: cell-based; settings: 0.2 mM AMPA, growth period 54 hrs
Description: The phn operon is induced when E. coli is grown in media lacking or limited in a phosphate source. Therefore, E. coli GB993 was compared to the parental JM101 strain when grown in MOPS minimal media. GB993 and its mpu− parent strain, JM101, were grown under identical conditions, varying only the amount of phosphate available or supplemented with AMPA. 50 ml cultures were grown in duplicate in 250 ml sidearm-Erlenmeyer flasks with continuous shaking at 37° C. in MOPS medium (5 mls of 10×MOPS salts, 0.5 ml 1 mg/ml thiamin, 0.5 ml 20% glucose, to 50 mls with dH2O) containing 0.1 or 5 mM phosphate, or 0.1 mM phosphate supplemented with approximately 0.2 mM AMPA, pH 7.0. The cultures were generally grown to about 220 Klett units and the cells were pelleted by centrifugation, resuspended in 1.5 mls of 10 mM Tris/1 mM DTT, and lysed with two passes through a French press at […]. Lysates were centrifuged to remove debris and the supernatant passed through a G-50 column equilibrated with 50 mM Tris pH 7.0.

[2] = tested on: tobacco lines 33476, 36779, 37235; assay: [^14C]-glyphosate metabolism in R1 tobacco plants; format: in vivo
Text: Seed from Ro transformation events were obtained after self crossing in growth chamber conditions. Ro seed were cured and planted to generate R1 progeny. Source leaves of R1 progeny at the five leaf stage were exposed to [^14C]-glyphosate by spotting a 2 microliter sample onto each vein (50 microliters of [^14C]-glyphosate Na+ salt, 517,000 dpm/microgram, 0.42 microgram/microliter mixed with 10 microliters of glycerol). Each leaf received several spots depending on the number of veins on that leaf. Three days later 15 additional 2 microliter spots were applied to each leaf. Two weeks later, five 2 microliter spots were applied to each of two leaves on each plant. These were new leaves and were not the older leaves to which glyphosate was initially applied. Five days after this last application, about 300 milligrams of tissue was sampled from two sink leaves on each plant. The samples from each plant were homogenized in separate 1 ml volumes of deionized water, centrifuged at 9,000 RPM in a microcentrifuge, and the aqueous volumes were collected and stored on ice. Extracts were analyzed by HPLC for the presence of [^14C] labeled metabolites as in Example 2. […] In addition, the lack of a bleaching effect in line 36779 after exposure to glyphosate is consistent with the presence of functional GOX and PhnO enzymes and the absence of detectable [^14C]-AMPA.

[3] = tested on: recombinant cotton line 4268 (GOX/PhnO); assay: [^14C]-glyphosate metabolism in cotton line 4268; format: in vivo, cotton (Gossypium hirsutum L.); settings: GOX/PhnO Plants
Description: The metabolism of [^14C]-glyphosate in recombinant cotton lines 4268 (GOX/PhnO) and 3753 (EPSPS/GOX) was also studied. Plants in this study were treated as indicated above for cotton line 4416, by applying droplets of ROUNDUP ULTRA fortified with [^14C]-glyphosate to a single leaf on each plant at the three to four leaf stage. Treated leaves were harvested and rinsed with water, then ground and extracted, and extracts were analyzed by HPLC as described above for the presence of [^14C]-glyphosate, [^14C]-AMPA, and N-acetyl-[^14C]-AMPA. New growth, including the meristem and new leaves that emerged following application were also extracted and analyzed.

[4] = tested on: R2 glyphosate tolerant wheat plants; assay: [^14C]-glyphosate metabolism in wheat plants; format: in vivo, Triticum aestivum cv Bobwhite
Description: R2 seed was germinated from a number of different glyphosate tolerant lines to produce R2 glyphosate tolerant plants to which [^14C]-glyphosate was applied as described above. Plant leaf and stem tissues were harvested at 48 hours after glyphosate application, and water soluble compounds were extracted as described above and analyzed by HPLC as in example 2 for the presence of [^14C]-glyphosate metabolites. The total area under the [^14C] isotope labeled peaks eluting from the column was summed to provide a baseline of 100% [^14C]-compound identification for each sample analyzed.

[5] = EPSPS + PhnO + GOX, Plant Line 25462
[6] = EPSPS + PhnO + GOX, Plant Line 26281
[7] = EPSPS + PhnO + GOX, Plant Line 28598
[8] = non-recombinant Bobwhite plants

NCP(=O)(O)O [AMPA, N-aminomethyl phosphonic acid]
phytotoxic effect on plants ([1]; 64 ounces per acre, eight days post-application): Leaf chlorosis and stunted growth
phytotoxic effect on plants ([1]; 640 ounces per acre, four days post-application): Leaf chlorosis and stunted growth
growth of tobacco callus tissue (Tobacco callus): severely inhibited
Harvest Density (E. coli GB993): 185 Klett Units

N-phosphono-methyl-glycine [Glyphosate]
[^14C] labeled metabolites in sink leaf extract ([2]; line 33476 (GOX)): only [^14C]-AMPA
[^14C] labeled metabolites in sink leaf extract ([2]; line 36779): Only N-acetyl-[^14C]-AMPA
[^14C] labeled metabolites in sink leaf extract ([2]; line 37235): non-metabolized [^14C]-glyphosate as well as a trace but measurable amount of [^14C]-AMPA
% [^14C] metabolite in Glyphosate Treated Leaf Extract: AMPA ([3]; listed as [^14C]-Glyphosate): 3.2% and 5.7% and 3.0% and 4.8%
% [^14C] metabolite in Glyphosate Treated Leaf Extract: Glyphosate ([3]; listed as [^14C]-Glyphosate): 54.4% and 58.3% and 76.7% and 63.9%
% [^14C] metabolite in New Growth Extract: AMPA ([3]; listed as [^14C]-Glyphosate): 1.2% and 1.0% and 1.5%
% [^14C] metabolite in New Growth Extract: Glyphosate ([3]; listed as [^14C]-Glyphosate): 0.8% and 1.1% and 3.4%
% [^14C] metabolite in New Growth Extract: N-Acetyl-AMPA ([3]; listed as [^14C]-Glyphosate): 94.7% and 91.0% and 89.9% and 91.5%
% [^14C] metabolite in New Growth Extract: N-Acetyl-AMPA ([3]; listed as [^14C]-glyphosate): 90-95%
Acetyl-[^14C]-AMPA, of summed [^14C] peaks [4, 5]: 0%
[^14C]-Glyphosate, of summed [^14C] peaks [4, 5]: 48% and 44% and 54%
Acetyl-[^14C]-AMPA, of summed [^14C] peaks [4, 6]: 17% and 13% and 7%
[^14C]-AMPA, of summed [^14C] peaks [4, 6]: 14% and 11% and 7%
[^14C]-Glyphosate, of summed [^14C] peaks [4, 6]: 48% and 64% and 38%
[^14C]-Glyphosate, of summed [^14C] peaks ([4]; EPSPS + PhnO + GOX, Plant Line 27249): 6% and 14% and 5%
Acetyl-[^14C]-AMPA, of summed [^14C] peaks [4, 7]: 5%
[^14C]-AMPA, of summed [^14C] peaks [4, 7]: 7%
[^14C]-Glyphosate, of summed [^14C] peaks [4, 7]: 20% and 25%
[^14C]-Other, of summed [^14C] peaks [4, 7]: 68% and 63%
Acetyl-[^14C]-AMPA, of summed [^14C] peaks ([4]; EPSPS, Plant Line 24756): 1% and 0%
[^14C]-AMPA, of summed [^14C] peaks ([4]; EPSPS, Plant Line 24756): 25% and 46%
[^14C]-Glyphosate, of summed [^14C] peaks ([4]; EPSPS, Plant Line 24756, 48 hours after application): 43% and 53%
Acetyl-[^14C]-AMPA, of summed [^14C] peaks ([4]; EPSPS, Plant Line 25397): 0% and 1.2%
[^14C]-AMPA, of summed [^14C] peaks ([4]; EPSPS, Plant Line 25397): 38% and 19% and 20%
[^14C]-Glyphosate, of summed [^14C] peaks ([4]; EPSPS, Plant Line 25397): 61% and 37% and 64%
Acetyl-[^14C]-AMPA, of summed [^14C] peaks [4, 8]: 0%
[^14C]-AMPA, of summed [^14C] peaks [4, 8]: 26% and 15% and 24%
